We go through 18 compounds from EP4741392A1, “1H-PYRAZOLO[4,3-C]PYRIDINE COMPOUND, AND COMPOSITION THEREOF AND USE THEREOF” (Shenzhen TargetRx Co., Ltd., priority 2023, dated 2025).

One assay concerns NIH/3T3 BTK WT cells. Briefly: Phosphor-BTK(Y223) assay, adherent cells. It is filed as cell-based. The following applies: Mus musculus, NIH3T3, phosphorylated BTK Y223, NIH/3T3 BTK WT cells; read-out: NIH/3T3 BTK-WT pBTK. In outline: (§1)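 NIH/3T3 cells expressing WT or C481S BTK were pretreated with compound for 0.5 h at 37 °C, then stimulated with 1 mM Na3VO4 (final) for 2 h. Lysates were assayed by HTRF for p-BTK Y223 using the 665/620 nm ratio. IC50 was obtained by nonlinear fit of % inhibition versus 0.5% DMSO control.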

The test system of a further assay is NIH/3T3 BTK C481S cells. The assay can be described thus: Phosphor-BTK(Y223) assay, adherent cells. Conditions: Mus musculus, NIH3T3, phosphorylated BTK Y223, NIH/3T3 BTK C481S cells; read-out: NIH/3T3 BTK-C481S pBTK. It is filed as cell-based. In outline: as §1
The next assay concerns the target T1, BTK C481S (Homo sapiens, UniProt Q06187, C481S).
T1 construct: purchased Carna 08-547
The assay can be described thus: Kinase activity inhibition assay (HTRF TK Kit). It is filed as biochemical. In outline:
(§2)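 Compounds are serially diluted and incubated with kinase, substrate and ATP at room temperature, the plate having been prepared on ice. Detection reagents are then added for 1 h, and the 665/620 nm fluorescence ratio is converted to percent inhibition for curve fitting.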
A general note: TR-FRET usually uses a lanthanide donor and a delayed reading to cut background.

The target in a further assay is T2, BTK kinase (Homo sapiens, UniProt Q06187).
T2 construct: purchased Invitrogen PV3587
Briefly: Kinase activity inhibition assay (HTRF TK Kit). It is filed as biochemical. The method, boiled down: as §2

A further assay concerns the target T3, BTK T474I (Homo sapiens, UniProt Q06187, T474I).
T3 construct: purchased SignalChem B10-12HH
The assay can be described thus: Kinase activity inhibition assay (HTRF TK Kit). It is filed as biochemical. In outline: as §2

T3 sequence (Q06187 whole entry T474I): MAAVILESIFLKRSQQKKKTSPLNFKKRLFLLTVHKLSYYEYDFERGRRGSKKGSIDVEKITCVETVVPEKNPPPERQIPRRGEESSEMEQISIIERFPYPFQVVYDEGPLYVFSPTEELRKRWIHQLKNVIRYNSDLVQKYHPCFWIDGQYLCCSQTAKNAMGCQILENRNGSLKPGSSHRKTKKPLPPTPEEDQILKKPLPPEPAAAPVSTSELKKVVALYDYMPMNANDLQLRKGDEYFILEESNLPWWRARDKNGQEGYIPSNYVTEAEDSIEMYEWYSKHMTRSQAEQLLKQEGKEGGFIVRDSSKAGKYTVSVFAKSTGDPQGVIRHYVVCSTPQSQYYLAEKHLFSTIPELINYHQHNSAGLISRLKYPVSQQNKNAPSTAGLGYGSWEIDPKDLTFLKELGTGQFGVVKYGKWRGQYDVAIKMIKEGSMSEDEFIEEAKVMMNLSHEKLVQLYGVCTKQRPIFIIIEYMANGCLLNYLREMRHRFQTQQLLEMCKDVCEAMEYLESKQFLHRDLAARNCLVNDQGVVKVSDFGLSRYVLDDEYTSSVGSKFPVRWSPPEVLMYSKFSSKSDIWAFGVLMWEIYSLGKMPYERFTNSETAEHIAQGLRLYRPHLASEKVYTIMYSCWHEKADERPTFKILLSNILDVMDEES
T1 sequence (Q06187 whole entry C481S): as the sequence (Q06187 whole entry T474I) above, with I474T, C481S counted along it
T2 sequence (Q06187 whole entry): as the sequence (Q06187 whole entry T474I) above, with I474T counted along it

Take `COc1ccc(F)cc1C(=O)NCc1ccc(-c2ncc(-c3ccc(N4CCN(C)CC4)cn3)c3[nH]nc(N)c23)cc1` [Example 73, N-(4-(3-amino-7-(5-(4-methylpiperazin-1-yl)pyridin-2-yl)-1H-pyrazolo[4,3-c]pyridin-4-yl)benzyl)-5-fluoro-2-methoxybenzamide]: the IC50 with NIH/3T3 BTK WT cells is at most 5 nM; with NIH/3T3 BTK C481S cells it was at most 5 nM; on BTK C481S, at most 1 nM; at BTK kinase it was at most 1 nM; at BTK T474I, 5 to 50 nM.

With `COc1ccc(F)cc1C(=O)NCc1ccc(-c2ncc(-c3ccc(N4CCN(C)C[C@@H]4C)cn3)c3[nH]nc(N)c23)cc1` [Example 74, (S)-N-(-4-(3-amino-7-(5-(2,4-dimethylpiperazin-1-yl)pyridin-2-yl) 1H-pyrazolo[4,3-c]pyridin-4-yl)benzyl)-5-fluoro-2-methoxybenzamide], the IC50 was at most 5 nM in the assay on NIH/3T3 BTK WT cells; at most 5 nM in the assay with NIH/3T3 BTK C481S cells; 1 to 5 nM at BTK C481S; 1 to 5 nM at BTK kinase; 5 to 50 nM on BTK T474I.

With `COc1ccc(F)cc1C(=O)NCc1ccc(-c2ncc(-c3ccc(N4CCN(C)C[C@H]4C)cn3)c3[nH]nc(N)c23)cc1` [Example 75, (R)-N-(-4-(3-amino-7-(5-(2,4-dimethylpiperazin-1-yl)pyridin-2-yl) 1H-pyrazolo[4,3-c]pyridin-4-yl)benzyl)-5-fluoro-2-methoxybenzamide], the IC50 in the assay with NIH/3T3 BTK WT cells was at most 5 nM; in the assay on NIH/3T3 BTK C481S cells it was at most 5 nM; on BTK C481S, at most 1 nM; at BTK kinase it was 1 to 5 nM; on BTK T474I, 5 to 50 nM.

In the case of `COc1ccc(F)cc1C(=O)NCc1ccc(-c2ncc(-c3ccc(N4CCOCC4)cn3)c3[nH]nc(N)c23)cc1` [Example 76, N-(4-(3-amino-7-(5-morpholinopyridin-2-yl)-1H-pyrazolo[4,3-c]pyridin-4-yl)benzyl)-5-fluoro-2-methoxybenzamide], the IC50 with NIH/3T3 BTK WT cells was at most 5 nM; with NIH/3T3 BTK C481S cells, at most 5 nM; on BTK C481S, at most 1 nM; at BTK kinase, at most 1 nM; at BTK T474I it was 1 to 5 nM.

As for `COc1ccc(F)cc1C(=O)NCc1ccc(-c2ncc(-c3nccn4cccc34)c3[nH]nc(N)c23)cc1` [Example 77, N-(4-(3-amino-7-(pyrrolo[1,2-a]pyrazin-1-yl)-1H-pyrazolo[4,3-c]pyridin-4-yl)benzyl)-5-fluoro-2-methoxybenzamide], the IC50 in the assay with NIH/3T3 BTK WT cells was at most 5 nM; with NIH/3T3 BTK C481S cells it was at most 5 nM; at BTK C481S, 1 to 5 nM; at BTK kinase, 1 to 5 nM; on BTK T474I it was 50 to 500 nM.

Turning to `COc1ccc(F)cc1C(=O)NCc1ccc(-c2ncc(-c3cc4cnccn4n3)c3[nH]nc(N)c23)cc1` [Example 78, N-(4-(3-amino-7-(pyrazolo[1,5-a]pyrazin-2-yl)-1H-pyrazolo[4,3-c]pyridin-4-yl)benzyl)-5-fluoro-2-methoxybenzamide], the IC50 with NIH/3T3 BTK WT cells was at most 5 nM; in the assay on NIH/3T3 BTK C481S cells, at most 5 nM; on BTK C481S, at most 1 nM; at BTK kinase, at most 1 nM; at BTK T474I it was 5 to 50 nM.

On to `COc1ccc(F)cc1C(=O)NCc1ccc(-c2ncc(-c3ccc(NC(=O)C4CC4)cn3)c3[nH]nc(N)c23)cc1` [Example 79, N-(4-(3-amino-7-(5-(cyclopropaneformamido)pyridin-2-yl)-1H-pyrazolo[4,3-c]pyridin-4-yl)benzyl)-5-fluoro-2-methoxybenzamide], for which the IC50 in the assay with NIH/3T3 BTK WT cells was 5 to 10 nM; in the assay on NIH/3T3 BTK C481S cells, 10 to 50 nM; on BTK C481S, 5 to 50 nM; on BTK kinase, 5 to 50 nM; at BTK T474I, above 500 nM.

For `COc1ccc(F)cc1C(=O)NCc1ccc(-c2ncc(-c3cc(NC(=O)C4CC4)ccn3)c3[nH]nc(N)c23)cc1` [Example 80, N-(4-(3-amino-7-(4-(cyclopropaneformamido)pyridin-2-yl)-1H-pyrazolo[4,3-c]pyridin-4-yl)benzyl)-5-fluoro-2-methoxybenzamide], the IC50 lay in the range of 5 to 10 nM in the assay with NIH/3T3 BTK WT cells; 5 to 10 nM with NIH/3T3 BTK C481S cells; 1 to 5 nM on BTK C481S; 1 to 5 nM at BTK kinase; 50 to 500 nM on BTK T474I.

Turning to `COc1ccc(F)cc1C(=O)NCc1ccc(-c2ncc(-c3ccc(F)cn3)c3[nH]nc(N)c23)c(F)c1` [Example 82, N-(4-(3-amino-7-(5-fluoropyridin-2-yl)-1H-pyrazolo[4,3-c]pyridin-4-yl)-3-fluorobenzyl)-5-fluoro-2-methoxybenzamide], the IC50 with NIH/3T3 BTK WT cells is at most 5 nM; in the assay on NIH/3T3 BTK C481S cells, at most 5 nM; at BTK C481S, 1 to 5 nM; on BTK kinase it was 1 to 5 nM; on BTK T474I, 50 to 500 nM.

On to `COc1ccc(F)cc1C(=O)NCc1ccc(-c2nc(C)c(-c3ncccn3)c3[nH]nc(N)c23)cc1` [Example 84, N-(4-(3-amino-6-methyl-7-(pyrimidin-2-yl)-1H-pyrazolo[4,3-c]pyridin-4-yl)benzyl)-5-fluoro-2-methoxybenzamide], for which the IC50 is 5 to 10 nM in the assay on NIH/3T3 BTK WT cells; 10 to 50 nM with NIH/3T3 BTK C481S cells; 5 to 50 nM at BTK C481S; 5 to 50 nM on BTK kinase; 50 to 500 nM at BTK T474I.

For `COc1ccc(F)cc1C(=O)NCc1ccc(-c2nc(C(F)F)c(-c3ncccn3)c3[nH]nc(N)c23)cc1` [Example 85, N-(4-(3-amino-6-(difluoromethyl)-7-(pyrimidin-2-yl)-1H-pyrazolo[4,3-c]pyridin-4-yl)benzyl)-5-fluoro-2-methoxybenzamide], the IC50 in the assay with NIH/3T3 BTK WT cells was at most 5 nM; in the assay on NIH/3T3 BTK C481S cells, 5 to 10 nM; at BTK C481S it was 1 to 5 nM; at BTK kinase, 1 to 5 nM; at BTK T474I it was 50 to 500 nM.

Regarding `COc1ccc(F)cc1C(=O)NCc1ccc(-c2nc(C3CCSCC3)cc3[nH]nc(N)c23)cc1` [Example 91, N-(4-(3-amino-6-(tetrahydro-2H-thiopyran-4-yl)-1H-pyrazolo[4,3-c]pyridin-4-yl)benzyl)-5-fluoro-2-methoxybenzamide], the IC50 with NIH/3T3 BTK WT cells was at most 5 nM; in the assay on NIH/3T3 BTK C481S cells it was 5 to 10 nM; on BTK C481S, 1 to 5 nM; at BTK kinase it was 1 to 5 nM; at BTK T474I, 50 to 500 nM.

As for `C=CC(=O)N1CCCC(c2cc3[nH]nc(N)c3c(-c3ccc(CNC(=O)c4cc(F)ccc4OC)cc3)n2)C1` (stereo not drawn) [Example 96, N-(4-(6-(1-acryloylpiperidin-3-yl)-3-amino-1H-pyrazolo[4,3-c]pyridin-4-yl)benzyl)-5-fluoro-2-methoxybenzamide], the IC50 was 10 to 50 nM in the assay on NIH/3T3 BTK WT cells; above 50 nM in the assay on NIH/3T3 BTK C481S cells; 1 to 5 nM at BTK C481S; 1 to 5 nM at BTK kinase; 5 to 50 nM at BTK T474I.

As to `COc1ccc(F)cc1C(=O)NCc1ccc(-c2ncc(-c3nccn4nccc34)c3[nH]nc(N)c23)cc1` [Example 98, N-(4-(3-amino-7-(pyrazolo[1,5-a]pyrazin-4-yl)-1H-pyrazolo[4,3-c]pyridin-4-yl)benzyl)-5-fluoro-2-methoxybenzamide], the IC50 was at most 5 nM in the assay on NIH/3T3 BTK WT cells; at most 5 nM in the assay on NIH/3T3 BTK C481S cells; 1 to 5 nM at BTK C481S; 1 to 5 nM at BTK kinase; 50 to 500 nM at BTK T474I.

As to `COc1ccc(F)cc1C(=O)NCc1ccc(-c2ncc(-c3nc4ccccc4s3)c3[nH]nc(N)c23)cc1` [Example 99, N-(4-(3-amino-7-(benzo[d]thiazol-2-yl)-1H-pyrazolo[4,3-c]pyridin-4-yl)benzyl)-5-fluoro-2-methoxybenzamide], the IC50 in the assay on NIH/3T3 BTK WT cells was at most 5 nM; in the assay on NIH/3T3 BTK C481S cells, 5 to 10 nM; at BTK C481S, 5 to 50 nM; at BTK kinase, 5 to 50 nM; at BTK T474I, 50 to 500 nM.

In the case of `COc1ccc(F)cc1C(=O)NCc1ccc(-c2ncc(-c3nc4cccnc4s3)c3[nH]nc(N)c23)cc1` [Example 100, N-(4-(3-amino-7-(thiazolo[5,4-b]pyridin-2-yl)-1H-pyrazolo[4,3-c]pyridin-4-yl)benzyl)-5-fluoro-2-methoxybenzamide], the IC50 in the assay on NIH/3T3 BTK WT cells was at most 5 nM; in the assay on NIH/3T3 BTK C481S cells, 5 to 10 nM; at BTK C481S, 1 to 5 nM; on BTK kinase it was 1 to 5 nM; at BTK T474I, 50 to 500 nM.

`CCN1CCc2nc(-c3cnc(-c4ccc(CNC(=O)c5cc(F)ccc5OC)cc4)c4c(N)n[nH]c34)sc2C1` [Example 101, N-(4-(3-amino-7-(5-ethyl-4,5,6,7-tetrahydrothiazolo[5,4-c]pyridin-2-yl)-1H-pyrazolo[4,3-c]pyridin-4-yl)benzyl)-5-fluoro-2-methoxybenzamide]: the IC50 in the assay with NIH/3T3 BTK WT cells was at most 5 nM; in the assay on NIH/3T3 BTK C481S cells, at most 5 nM; on BTK C481S it was 1 to 5 nM; at BTK kinase it was 1 to 5 nM; on BTK T474I it was 5 to 50 nM.

Consider `COc1ccc(F)cc1C(=O)NCc1ccc(-c2ncc(-c3ccc4c(n3)nc3n4CCOC3)c3[nH]nc(N)c23)cc1` [Example 102, N-(4-(3-amino-7-(6,7-dihydro-9H-pyrido[2',3':4,5]imidazo[2,1-c][1,4]oxazin-2-yl)-1H-pyrazolo[4,3-c]pyridin-4-yl)benzyl)-5-fluoro-2-methoxybenzamide], for which the IC50 is 10 to 50 nM in the assay with NIH/3T3 BTK WT cells; 10 to 50 nM with NIH/3T3 BTK C481S cells; 5 to 50 nM on BTK C481S; 5 to 50 nM at BTK kinase; above 500 nM on BTK T474I.
